Results on six compounds are retold here after ChEMBL document CHEMBL1139107, “Design, synthesis, and biological evaluation of novel analogues of archazolid: a highly potent simplified V-ATPase inhibitor” (Bioorg Med Chem Lett, 2007).

In assay [1] the test system is L929. Description: Growth inhibition of mouse L929 cells by MTT assay. The format is functional, cell-based.
Assay [2] is described as follows: Inhibition of tobacco hornworm midgut vacuolar ATPase V1/V0 holoenzyme. Details: species or system Manduca sexta.

Molecules are shown by their SMILES.

Take `CNC(=O)O[C@@H](CC(C)C)c1nc([C@H]2OC(=O)/C(C)=C/C/C(C)=C/[C@@H](O[Si](C)(C)C(C)(C)C)[C@@H](C)\C=C(C)/C=C(C)\C=C\[C@@H](O)[C@H](C)[C@H](OC)/C(C)=C/C=C/[C@@H]2C)cs1`: the IC50 in assay [1] was 0.94 µM.

`CNC(=O)O[C@@H](CC(C)C)c1nc([C@H]2OC(=O)/C=C/C/C(C)=C/[C@@H](O)[C@@H](C)\C=C(C)/C=C(C)\C=C\[C@@H](O)[C@H](C)[C@H](OC)/C(C)=C/C=C/[C@@H]2C)cs1` [ARCHAZOLID B] displayed an IC50 in assay [1] of 0.0011 µM.

With `CNC(=O)O[C@@H](CC(C)C)c1nc([C@H]2OC(=O)/C(C)=C/C/C(C)=C/[C@@H](O)[C@@H](C)\C=C(C)/C=C(C)\C=C\[C@@H](O)[C@H](C)[C@H](OC)/C(C)=C/C=C/[C@@H]2C)cs1` [ARCHAZOLID A], the IC50 in assay [1] worked out at 0.00081 µM; in assay [2] it was 0.6 nmol.

Regarding `CO[C@@H]1/C(C)=C/C=C/[C@H](C)[C@@H](c2csc([C@@H](O)CC(C)C)n2)OC(=O)/C(C)=C/C/C(C)=C/[C@@H](O)[C@@H](C)\C=C(C)/C=C(C)\C=C\[C@@H](O)[C@@H]1C`, the IC50 in assay [1] turned out to be 0.014 µM.

As for `CNC(=O)O[C@@H](CC(C)C)c1nc([C@H]2OC(=O)/C(C)=C/C/C(C)=C/[C@@H](O)[C@@H](C)\C=C(C)/C=C(C)\C=C\C(=O)[C@H](C)[C@H](OC)/C(C)=C/C=C/[C@@H]2C)cs1` [DEHYDROARCHAZOLID], the IC50 in assay [1] is over 5 µM.

In assay [1], `CNC(=O)O[C@@H](CC(C)C)c1nc([C@H]2OC(=O)/C(C)=C/C/C(C)=C/[C@@H](OC(=O)c3ccc([N+](=O)[O-])cc3)[C@@H](C)\C=C(C)/C=C(C)\C=C\[C@@H](O)[C@H](C)[C@H](OC)/C(C)=C/C=C/[C@@H]2C)cs1` had an IC50 of 0.29 µM.
